From patent publication US7176224B2, “Oxazolyl-aryloxyacetic acid derivatives and their use as PPAR agonists” (Eli Lilly and Company, priority 2000, dated 2007)

Legend:
[1] = system: huPPARγ; assay: Cotransfection assay in CV-1 cells, luciferase reporter; assay type: cell-based, human; conditions: GAL4 chimeric system, relative to agonist reference molecule
Procedure: […] binding (ABCD binding) was carried out using SPA technology with PPAR receptors. […] Cotransfection assays were carried out in CV-1 cells. The reporter plasmid contained an acylCoA oxidase (AOX) PPRE and TK promoter upstream of the luciferase reporter cDNA. Appropriate PPARs and RXRα were constitutively expressed using plasmids containing the CMV promoter. […] In order to eliminate such interference, a GAL4 chimeric system was used in which the DNA binding domain of the transfected PPAR was replaced by that of GAL4, and the GAL4 response element was utilized in place of the AOX PPRE. […] Efficacies were determined by computer fit to a concentration-response curve, or in some cases at a single high concentration of agonist (10 μM). For binding or cotransfection studies with receptors other than PPARs, similar assays were carried out using appropriate ligands, receptors, reporter constructs, etc., for that particular receptor.
These studies were carried out to evaluate the ability of compounds of the invention to bind to and/or activate various nuclear transcription factors, particularly huPPARα (“hu” indicates “human”) and huPPARγ. These studies provide in vitro data concerning efficacy and selectivity of compounds of the invention. Furthermore, binding and cotransfection data for compounds of the invention were compared with corresponding data for marketed compounds that act on either huPPARα or huPPARγ.

[2] = system: Hu apoAI transgenic mice; assay: Evaluation of triglyceride and cholesterol levels in hu apoAI transgenic mice; assay type: in vivo; conditions: 30 mg/kg oral gavage daily for 7 days; serum HDLc FPLC area under the curve, over mice receiving vehicle
Procedure: Five to six week old male mice, transgenic for human apoAI [C57B1/6-tgn(apoa1) 1rub, Jackson Laboratory, Bar Harbor, Me.] were housed five per cage (10″×20″8″ with aspen chip bedding) with food (Purina 5001) and water available at all times. After an acclimation period of 2 weeks, animals were individually identified by ear notches, weighed, and assigned to groups based on body weight. Beginning the following morning, mice were dosed daily by oral gavage for 7 days using a 20 gauge, 1½″ curved disposable feeding needle (Popper & Sons). Treatments were test compounds (30 mg/kg), a positive control (fenofibrate, 100 mg/kg) or vehicle [1% carboxymethylcellulose (w/v)/0.25% Tween80 (w/v); 0.2 ml/mouse]. Prior to termination on day 7, mice were weighed and dosed. Three hours after dosing, animals were anesthetized by inhalation of isoflurane (2–4%; Abbott Laboratories, Chicago, Ill.) and blood obtained via cardiac puncture (0.7–1.0 ml). Whole blood was transferred to serum separator tubes (Vacutainer SST), chilled on ice, and permitted to clot. Serum was obtained after centrifugation at 4° C. and frozen until analysis for triglycerides, total cholesterol, compound levels, and serum lipoprotein profile by fast protein liquid chromatography (FPLC) coupled to an inline detection system. After sacrifice by cervical dislocation, the liver, heart and epididymal fat pads were excised and weighed.
The animals dosed with vehicle had average triglycerides values of 60–80 mg/dl, which were reduced by the positive control fenofibrate (33–58 mg/dl with a mean reduction of 37%). The animals dosed with vehicle had average total serum cholesterol values of 140–180 mg/dl, which were increased by fenofibrate (190–280 mg/dl, with a mean elevation of 41%). […] increased the amount of HDLc (68–96 v-sec with a mean percent increase of 48%).
Glucose was measured colorimetrically using commercially purchased reagents (Sigma #315-500). According to the manufacturers, the procedures were modified from published work (McGowan, M. W., Artiss, J. D., Strandbergh, D. R. & Zak, B. Clin Chem, 20:470–5 (1974) and Keston, A. Specific colorimetric enzymatic analytical reagents for glucose. Abstract of papers 129th Meeting ACS, 31C (1956).); and depend on the release of a mole of hydrogen peroxide for each mole of analyte, coupled with a color reaction first described by Trinder (Trinder, P. Determination of glucose in blood using glucose oxidase with an alternative oxygen acceptor. Ann Clin Biochem, 6:24 (1969)). The absorbance of the dye produced is linearly related to the analyte in the sample. The assays were further modified in our laboratory for use in a 96 well format. Standards (Sigma #339-11, Sigma #16-11, and Sigma #CC0534 for glucose, triglycerides and total cholesterol, respectively), quality control plasma (Sigma # A2034), and samples (2 or 5 μl/well) were measured in duplicate using 200 μl of reagent. An additional aliquot of sample, pipetted to a third well and diluted in 200 μl water, provided a blank for each specimen. Plates were incubated at room temperature (18, 15, and 10 minutes for glucose, triglycerides and total cholesterol, respectively) on a plate shaker (DPC Micormix 5) and absorbance read at 500 nm (glucose and total cholesterol) or 540 nm (triglycerides) on a plate reader (Wallac Victor 1420). Sample absorbances were compared to a standard curve (100–800, 10–500, and 100–400 mg/dl for glucose, triglycerides and total cholesterol, respectively). Values for the quality control sample were always within the expected range and the coefficient of variation for samples was below 10%. All samples from an experiment were assayed at the same time to minimize inter-assay variability.
Serum lipoproteins were separated and cholesterol quantitated with an in-line detection system. Sample was applied to a Superose® 6 HR 10/30 size exclusion column (Amersham Pharmacia Biotech) and eluted with phosphate buffered saline-EDTA at 0.5 ml/min. […]

## Cc1oc(-c2cccc(-c3ccc(F)cc3)c2)nc1CCOc1ccc(CC(C)(Oc2ccccc2)C(=O)O)cc1 (centres unmarked) [Example 4, 3-(4-{2-[2-(4′-Fluorobiphenyl-3-yl)-5-methyloxazol-4-yl]ethoxy}phenyl)-2-methyl-2-phenoxypropionic acid]
[1]
  huPPARγ CTF Efficacy: 93%
[2]
  % HDLc Increase: 40.4%
